The values below come from patent US20130253060A1, “Intramural Research Program of the National Institutes of Health, National Institute of Environmental Health Sciences (NIEHS)” (priority 2011, published 2013).

In series [1] the test system is Male Swiss Webster mice given a lethal dose of acetaminophen (APAP). In words: Survival of mice given a lethal dose of APAP, with or without BPPA treatment. Particulars: for mortality: APAP alone. The format is in vivo. The protocol: Male Swiss Webster mice weighing between 25-30 g were obtained from Harlan Laboratories (Indianapolis, Ind.). Mice had unlimited access to rodent chow (Harlan Teklad Rat Chow No. 7001, Madison, Wis.) and water. The mice were housed over sawdust bedding free of any known chemical contaminants (Sani-chips; Harlan Teklad, Madison, Wis.) in air conditioned quarters (21±1° C.) with a 12 h photoperiod. All animal husbandry and handling conditions were as per the NIH Guide for Care and Use of Laboratory Animals. Research protocols were approved by the ULM Institutional Animal Care and Use Committee (IACUC).
(§1) Mice were given by intraperitoneal injection (i.p.) a lethal dose of APAP (600 mg/kg in 0.45 N NaCl, pH 8.2) or the vehicle alone. Treated mice were given a single injection of 20 mg/kg, i.p., BPPA, a sPLA2 inhibitor, after a set time interval (2, 4, and 8 hours after the dose of APAP). BPPA was purchased from a commercial source (Catalog No. 53319, Sigma Aldrich, St. Louis, Mo.). All the mice were observed six times on the first day and twice daily thereafter for 14 days for any mortality. […] Plasma was obtained by centrifugation of blood samples (1000 g for 20 min) for assessment of biochemical parameters of liver injury. The remaining plasma was quick-frozen in liquid nitrogen and stored at −80° C. until further analysis.

In series [2] the test system is plasma alanine aminotransferase (ALT). In words: Plasma alanine aminotransferase (ALT) as biomarker of liver injury. The class given is in vivo, mice. The protocol:
as §1
Plasma was separated by centrifugation of the heparinized blood. Plasma alanine aminotransferase (ALT) was measured as a biomarker of liver injury using a kit from Thermo DMA (Waltham, Mass.). The results were ascertained by light microscopic examination of liver sections stained with hematoxylin and eosin (H&E).

For series [3], the system named is secretory phospholipase A2 (sPLA2). Put plainly: sPLA2 activity in plasma. The format is in vivo, mice. The protocol: as §1
sPLA2 activity in the plasma was measured using sPLA2 activity kit (Cayman Chemicals, Ann Arbor, Mich.) as per the manufacturer's instructions. sPLA2 activity in plasma was expressed as sPLA2 units/ml. One unit of sPLA2 hydrolyzes one μmole of substrate (diheptanoyl Thio-phosphatidylcholine) per min at 25° C. and is expressed as μmoles substrate hydrolyzed/min/ml.

The conditions of series [4]: mice; cited from earlier work.
For series [5] the following is noted: humans; cited from earlier work.
The subject of series [6] is rats receiving chlordecone (CD)+CCl4. Put plainly: Survival after chlordecone + CCl4 combination with BPPA treatment. The format is in vivo. As to conditions: BPPA 20 mg/kg 1 hour after CCl4 injection; rats on chlordecone; data not shown. The protocol:
A combination of two chemicals, which are known to be nontoxic individually at very low levels, is known to be highly toxic when combined in mammals. One of these is a chlorinated pesticide known as KEPONE™, which is commonly known as chlordecone. The other is the organic solvent, carbon tetrachloride (CCl4). Either chemical will be toxic if given at a sufficient dose. For example, chlordecone, administered to older rats at 120 mg/kg causes central nervous system (CNS) toxicity such as tremors, convulsions and death. CCl4 injected or given orally at 4 ml/kg causes severe liver necrosis, liver failure and death. […] Likewise, exposing rats to a single dose of 100 μl/kg CCL4, i.p. led to the classic centrilobular injury by 3 hours, which escalated to about 4 fold injury in the liver by 12 hours. However, by 24 hours, the liver injury was repaired and no liver injury was observed. In contrast, if the same dose of CCl4 was given to rats maintained on dietary 10 ppm chlordecone for 15 days, on day 16, all rats died within 3 days after injecting CCl4, which is about a 67-fold amplification of the toxicity for CCl4 (Mehendale, 1994).
Using this combination of chlordecone and CCL4, BPPA (20 mg/kg) was injected in the rats 1 hour after the injection of CCl4, and 90% of the rats receiving the chlordecone (CD)+CCl4 survived (data not shown).

The subject of series [7] is mice lethally poisoned with thioacetamide. In words: Rescue of mice lethally poisoned with thioacetamide by BPPA. As to conditions: data not shown. The format is in vivo. From the text:
In addition, I have shown that sPLA2 mediates the liver injury initiated by thioacetamide, another hepatotoxicant, by showing mice lethally poisoned with thioacetamide were rescued by inhibiting sPLA2 with BPPA (data not shown).

Series [8] concerns rats maintained on dietary 10 ppm chlordecone. Particulars: CCl4 100 μl/kg i.p. on day 16 to rats on dietary 10 ppm chlordecone for 15 days; cited from earlier work.
Setting [9] is: APAP alone 600 mg/kg i.p., measured on Day 2, vs control and vehicle.
Where [10] appears, read: BPPA 20 mg/kg 2 hours after APAP 600 mg/kg, surviving mice, over 14 days.
[11] abbreviates: BPPA 20 mg/kg 4 hours after APAP 600 mg/kg.

“Also recorded” adds a separate entry of the source. Like-named read-outs stand apart in the source and are kept apart here.

In general, mortality refers to the share of the test organisms that died. What is called half-life is the time in which the quantity being followed falls by half. `CC(=O)Nc1ccc(O)cc1` [APAP, Acetaminophen]: the mortality was found to be 80% in series [1] (single dose 600 mg/kg i.p., no further treatment); 50% in series [1] (at 12 hours after injection); 80% in series [1] (at 24 hours after injection). The “plasma ALT enzymatic activity” value in series [2] (setting [9]) was “increased”. For the same molecule, the “plasma sPLA2 enzymatic activity” value in series [3] (setting [9]) was “increased”. Also, the half-life in series [4] is 1 h; in series [5], 2.5 h.
Turning to `O=C(O)CC[C@@H](Cc1ccc(OCc2ccccc2)cc1)NC(=O)CCCCCCc1ccccc1` [BPPA, 5-(4-Benzyloxyphenyl)-4S-(7-phenylheptanoylamino) pentanoic acid], the survival is on record as 70% in series [1] (BPPA 20 mg/kg i.p. 4 hours after APAP 600 mg/kg i.p., observed 14 days); 60% in series [1] (BPPA 20 mg/kg i.p. 8 hours after APAP 600 mg/kg i.p., observed 14 days); 60%-80 in series [1] (inhibitor administered 2 to 8 hours after APAP 600 mg/kg); 90% in series [6]. Besides, in series [1] (at 14 days, BPPA 20 mg/kg 2 hours after acetaminophen), the cumulative mortality is 10%. In addition, in series [2] (setting [10]), the “plasma ALT activity” value is listed as “down to the normal values; also recorded: decreased”. Further, the “plasma ALT level” value in series [2] (setting [11]) was “decreased to about normal levels”. Also, the “plasma sPLA2 activity” value in series [3] (setting [10]) is on record as “down to the normal values; also recorded: decreased”. Besides, the “plasma sPLA2 level” value in series [3] (setting [11]) is “decreased to about normal levels”. The “rescue from lethal thioacetamide poisoning” value in series [7] was “rescued”. Also, the mortality entry in series [7] (mice lethally dosed with thioacetamide, treated with BPPA) was “less mortality”.
Regarding `ClC(Cl)(Cl)Cl` [CCl4, carbon tetrachloride], in series [8], the “amplification of the toxicity” value is roughly 67 fold.
